The test system of series [1] is dermal fibroblasts. As to conditions: Verdoorn et al. 1986; cited from earlier work.
The test system of series [2] is dermal fibroblasts. As to conditions: Verdoorn et al. 1986; cited from earlier work. This is another data set of the same source.
The subject of series [3] is dermal fibroblasts. The following applies: Verdoorn et al. 1986; cited from earlier work. The source holds these as a separate data set.
Series [4] has as its system rabbit dermal fibroblasts. Description: Fibroblast-mediated collagen gel contraction (shrinkage) assay. The format is cell-based. As to conditions: for % Contraction: 200 ug type IV collagen peptide, no peptide 36%; for % Contraction / Contraction: cells preincubated 1 hr, gel surface area by planimetry at day 7; for Effect on fibroblast-mediated collagen gel contraction: gels cast with and without fibronectin; for Contraction: 200 ug laminin peptide, no peptide 67%. An excerpt:
As indicated above, proliferative vitreoretinopathy is the result of the proliferation and migration of fibroblasts, retinal pigment epithelial cells, and glial cells, and their organization into vitreous strands and epiretinal membranes. The vitreous strands and epiretinal membranes can contract, resulting in traction retinal detachment. The ability of rabbit dermal fibroblasts to cause contraction was examined in the collagen gel shrinkage model, which serves as an in vitro model of proliferative vitreoretinopathy (see Verdoon et al., Arch. Ophthalmol., 104, 1216-1219 (1986)). The ability of synthetic polypeptides derived from ECM molecules to inhibit contraction in the collagen gel shrinkage model using rabbit fibroblasts was also examined.
Fifty thousand rabbit dermal fibroblasts were suspended in 250 μl of fibroblast assay medium and mixed with 250 μl of Vitrogen and dispensed into the wells of a 48-well plate. The cells were preincubated with the desired polypeptide concentration (25, 50, 100, or 200 ug/ml) for one hour at 37° C. before mixing with the Vitrogen. Gelling occurred within 20 minutes after transfer of the mix of cell suspension and Vitrogen into an incubator at 37° C. with 5% CO2. The gels were overlaid with 250 μl of growth medium. All conditions were tested in duplicate wells. After 24 hours, the gels were detached from the sides of the wells by sweeping with a 27-gauge needle inserted at the interface between the plastic well and the gel (FIGS. 6-8).
Contraction of collagen gels was quantitated by use of planimetry. The gels were observed daily over the seven day period following detachment for evidence of contraction. The plates were photographed at the end of the seven days to record the amount of contraction. The contraction was measured by recording the area of each gel in each well off the photograph using a computer scanner. The area of the gels with polypeptide was compared to the area of the gels without the polypeptide. Planimetry is a two-dimensional measurement. […] The planimetry measurements accordingly underestimate the degree of contraction that actually occurred.
The collagen gels were cast with or without the incorporation of 25 ug/ml of fibronectin. […] These controls using deactivated cells indicate that cell growth and proliferation are required to effect gel shrinkage.

Series [5] deals with rabbit conjunctival fibroblasts. Description: Conjunctival fibroblast proliferation, tritiated thymidine assay. As to conditions: day 4; mitomycin-C at 100 μg/ml (positive control); no drug control 8537 cpm. The format is cell-based. An excerpt: The failure of gluacoma treatment by filtration surgery is most often caused by scarring. Scarring requires fibroblast proliferation and fibrosis of the subconjunctive space. Proliferation of rabbit conjunctival fibroblasts was studied using the tritiated thymidine assay, which serves as an in vitro model of fibroblast proliferation in the rabbit eye (see Invest. Ophthalmol. Vis. Sci., 31, 1848-1855 (1990)). The ability of synthetic polypeptides derived from ECM molecules to inhibit conjuntival fibroblast proliferation was examined in this model.
Rabbit conjunctival fibroblasts were plated into 96-well microtiter plates at 1000 cells/well in 200 microliters of standard fibroblast culture media. Standard fibroblast culture media include Eagle's minimal essential medium containing 15% fetal bovine serum, penicillin G 100 IU/ml, streptomycin 100 μg/ml, and amphotericin B 0.25 μg/ml. Hep-II was added to the wells in concentrations ranging from 1 μg/ml to 1000 μg/ml after removing an equal volume of media to maintain 200 microliters/well. The peptide was used in concentrations of 1, 3, 7, 10, 25, 50, 100, 200, 300, 400, 500, 600, 800 and 1000 microgram/ml (experiments 1-14, respectively in FIG. 26). The tissue culture plates were incubated at 37° C. in a humidified atmosphere of 5% carbon dioxide. Two separate sets experiments were conducted. Each set of experiments was done in replicates of four. In the first set of experiments, tritiated thymidine was added 22 hours prior to each harvesting on days 4, 5, and 8. In the second set of experiments, tritiated thymidine was added 22 hours prior to each harvesting on days 4, 5, and 6. Wells with vehicle but no test compound served as negative controls (experiment #15) and cells with mitomycin-C at 100 μg/ml served as positive controls (experiment #16).

The test system of series [6] is proliferative vitreoretinopathy rabbit model. As to conditions: cited from earlier work.
The conditions of series [7]: 3H-heparin; cited from earlier work.
The subject of series [8] is proliferative vitreoretinopathy in rabbits. Description: Rabbit model of experimental proliferative vitreoretinopathy (intravitreal fibroblast injection). The format is in vivo. As to the method: The rabbit model for proliferative vitreoretinopathy is described in Thresher et al., Graefe's Arch. Clin. Exp. Ophthalmol., 221, 192-198 (1984). Adult Dutch Belted rabbits of both sexes were used in the study. All animals were treated according to ARVO Animal Use Guidelines. All eyes were examined prior to initiation of a study and only clinically normal animals were used.
The rabbits were anesthetized using an intramuscular injection of a mix of ketamine (30 mg/kg) and xylazine (5 mg/kg). Pupils were dilated with Mydriacyl (Tropicamide) 1% and Neosynephrine 2.5% topical drops. Topical conjunctival anesthesia was provided with Proparacaine […] drops. All procedures were performed in an approved animal surgical facility. […] This site was used for subsequent intraocular injections, preventing iatrogenic retinal tears at the injection site. An intravitreal injection of 0.4 cc millipore-filtered 100% perfluoropropane gas was administered to produce a gas compression vitrectomy. Once the expansile gas bubble had absorbed, 5-10×10^4 dermal rabbit fibroblasts with or without 200 μg of polypeptide (injection volume-0.1 cc) were injected through a 27 gauge needle into the vitreous cavity. Under indirect ophthalmoscopic visualization, the tip of the needle was placed over the optic nerve head and the cells were injected in this location.
The animals were then observed for the development of proliferative vitreoretinopathy. The final stage of retinal detachment was scored from 0 to 7 using the standard grading scale shown below (see Hida et al., Graefe's Arch. Clin. Exp. Ophthalmol., 225, 1763-1769 (1991)).
Retinal photographs were taken with a wide field fundus camera (Canon) to document the final stage of retinal detachment. Animals were sacrificed while under deep anesthesia with an intravenous injection of 1 cc of euthanasia solution. The eyes were then immediately enucleated, fixed in 10% formalin, paraffin embedded, sectioned at 7 microns, and stained with hematoxylin and eosin for histology.
Three weeks following peripheral retinal cryopexy and gas compression vitrectomy, rabbit fibroblasts incubated for 1 hr with 200 ug of laminin polypeptide R37, type IV collagen polypeptide Hep-II, or BSS (balanced saline solution; control) were injected intravitreally. One eye of each rabbit received polypeptide incubated fibroblasts and the other eye received the control cells. Eyes were examined every three days, and the degree of retinal detachment was graded on the standard scale described above.

Series [9] relates to rabbit eye. Description: Intravitreal polypeptide toxicity in rabbit eye (ERG, clinical observations, histology). The format is in vivo. As to the method: The toxicity of the polypeptides was determined by three techniques:
ERG. Electroretinograms (ERG) were carried out as a functional indicator of toxicity of a polypeptide treatment. Polypeptides were injected at 200 ug and 400 ug (twice the dose that inhibited proliferative vitreoretinopathy), and ERG measurements were performed three times in each eye at various times post-injection (1 hr to 6 weeks).
Clinical observations. Observation by indirect ophthalmoscopy and slit lamp examination were performed to probe for evidence of toxicity.
Histology. Following ERG and clinical observations, the eyes were immediately enucleated, fixed in 10% formalin, paraffin embedded, sectioned at 7 microns, and stained with hematoxylin and eosin.

No end group written: not given here.

Take `COc1cc2c(c(OC)c1OC)-c1ccc(OC)c(=O)cc1[C@@H](NC(C)=O)CC2` [colchicine]: the “Inhibition of gel contraction” value in series [1] is listed as “most effective at inhibiting gel contraction”. In addition, the “Inhibition of cell proliferation” value in series [2] is “inhibited cell proliferation”.
On to `C=C1[C@@H](C)[C@H]2[C@H](Cc3ccccc3)NC(=O)[C@]23OC(=O)/C=C/[C@H](O)CCC[C@@H](C)C/C=C/[C@H]3[C@@H]1O` [cytochalasin B], for which the “Inhibition of cell proliferation” value in series [2] is on record as “inhibited cell proliferation”. The “Inhibition of cell migration” value in series [3] is reported as “minimal effect on cell migration”.
Regarding `COc1cccc2c1C(=O)c1c(O)c3c(c(O)c1C2=O)C[C@@](O)(C(C)=O)C[C@@H]3O[C@H]1C[C@H](N)[C@H](O)[C@H](C)O1` [daunomycin], the “Inhibition of gel contraction” value in series [1] is “not found to inhibit contraction”. In addition, in [2], the “Inhibition of cell proliferation” value is listed as “most effective”. Also, the “Inhibition of cell migration” value in [3] was “most inhibited”.
As for `CO[C@@]12[C@H](COC(N)=O)C3=C(C(=O)C(C)=C(N)C3=O)N1C[C@@H]1N[C@@H]12` [mitomycin-C, reference compound], the “Gel contraction by pretreated fibroblasts” value in series [4] (fibroblasts pretreated with mitomycin C, data not shown) is “did not cause gel contraction”. For the same compound, the Thymidine uptake in series [5] came out at 375 cpm.
For `CC(=O)O[C@H]1C(=O)[C@@]2(C)[C@H]([C@H](OC(=O)c3ccccc3)[C@]3(O)C[C@H](OC(=O)[C@H](O)[C@@H](NC(=O)c4ccccc4)c4ccccc4)C(C)=C1C3(C)C)[C@]1(OC(C)=O)CO[C@@H]1C[C@@H]2O` [taxol], the “Inhibition of cell proliferation” value in series [2] was “most effective”. In addition, the “Traction retinal detachment induced by injected chorioretinal fibroblasts” value in series [6] (0.5 μg intravitreal injection) is recorded as “reduces traction retinal detachment”.
`CC1(C)O[C@@H]2C[C@H]3[C@@H]4CCC5=CC(=O)C=C[C@]5(C)[C@@]4(F)[C@@H](O)C[C@]3(C)[C@]2(C(=O)CO)O1` [triamcinolone acetonide]: the “Incidence of retinal detachment” value in series [6] (eyes injected with triamcinolone acetonide, reduced from 93%) is 75%.
For the compound GEFYFDLRLKGDK [Hep-III, GEFYFDLRLKGDK], the “% Contraction” value in series [4] is on record as 33%. In addition, in series [7], the Heparin binding result is “reported to bind heparin”.
“GVKGDKGNPGWPGAP [IV-H1, GVKGDKGNPGWPGAP]”: in [4], the “% Contraction” value is given as 72% and the “Effect on fibroblast-mediated collagen gel contraction” value is recorded as “frequently found to promote contraction”.
In the case of “KATPMLKMRTSFHGCIK [R37, Lys-Ala-Thr-Pro-Met-Leu-Lys-Met-Arg-Thr-Ser-Phe-His-Gly-Cys-Ile-Lys]”, the Contraction in series [4] turned out to be 12%. The “Effect on fibroblast-mediated collagen gel contraction” value in [4] was “most potent inhibitory effects on contraction”. Further, in [8] (200 ug with 100,000 fibroblasts, three weeks after fibroblast injection), the “Retina appearance (stage 0-7 scale), fundus photograph” value is given as “normal (Stage 0)”. Further, the “# Detached Retinas (%)” value was 0% in [8] (Expt II: 200 ug, 50,000 cells, RD staged at day 21, control 40%); 14% in series [8] (Expt III: 200 ug, 100,000 cells, RD staged at day 7, control 100%); 25% in [8] (Expt IV: 200 ug, 80,000 cells, RD staged at day 21, control 100%). The “# Detached Retinas” value in [8] (Expt II: 200 ug, 50,000 cells, RD staged at day 21, total 5 eyes, control 2 of 5) is 0; in [8] (Expt III: 200 ug, 100,000 cells, RD staged at day 7, total 7 eyes, control 7 of 7), 1; in series [8] (Expt IV: 200 ug, 80,000 cells, RD staged at day 21, total 4 eyes, control 3 of 3), 1. Further, the “Degree of retinal detachment” value in series [8] (fibroblasts incubated 1 hr with 200 ug polypeptide, intravitreal) is “inhibited the degree of retinal detachment”. For the same compound, the Retinal histopathology result in series [9] (following injection of 400 ug) is listed as “normal rabbit retinal histopathology”. Also, the “Toxic effects by clinical observations, histopathology or ERG” value in [9] (intravitreal injection of 200 ug or 400 ug) is “No toxic effects”. The Heparin binding result in series [7] was “bind”.
Turning to KEGYKVRLDLNITLEFRTTSK [R38], in series [4], the Contraction is given as 74% and the “Effect on fibroblast-mediated collagen gel contraction” value was “frequently found to promote contraction”. Besides, the Heparin binding result in [7] was “bind”.
Take KNLEISRSTFDLLRNSYGVRK [R26]: in [4], the Contraction was 45% and the “Effect on fibroblast-mediated collagen gel contraction” value was “Inhibition of gel contraction was also observed”. Moreover, in series [7], the Heparin binding entry is “do not bind”.
KNNQKSEPLIGRKKT [FN-C/H-IIa]: the Heparin binding result in series [7] was “known to bind”.
In the case of “SPPRRARVT [FN-C/H-IV, Ser-Pro-Pro-Arg-Arg-Ala-Arg-Val-Thr]”, the “Effect on fibroblast-mediated collagen gel contraction” value in series [4] was “Inhibition of gel contraction was also observed”. The Heparin binding entry in series [7] is on record as “known to bind”.
With TAGSCLRKFSTM [Hep-I, TAGSCLRKFSTM], the “% Contraction” value in series [4] came out at 33%. In series [7], the Heparin binding result is recorded as “reported to bind heparin”.
On to “TSLRKALLHAPTGSYSDGQ [R35, TSLRKALLHAPTGSYSDGQ]”, for which, in series [4], the Contraction amounted to 63%. Also, in [7], the Heparin binding entry is reported as “do not bind”.
As to WQPPRARI [FN-C/H-V], the Heparin binding entry in [7] is reported as “known to bind”.
Regarding YEKPGSPPREVVPRPRPGV [FN-C/H-I], in series [7], the Heparin binding entry is on record as “known to bind”.
In the case of YRVRVTPKEKTGPMKE [FN-C/H-III], in [7], the Heparin binding result is “known to bind”.
